*1 amine or outer side, *2 acyl side, *3 side chain or, on linkers, in order; H or OH if unused. Where a SMILES comes first, the peptide text is derived from it. Side-chain parts run from the residue outwards. The star is where a group is joined. C16 diacid = O=C(O)CCCCCCCCCCCCCCC(=O)*; γGlu = O=C(O)[C@H](CCC(=O)[*:2])N[*:1]; AEEA = NCCOCCOCC(=O)O
Tests used:
Assay type in all cases: cell-based
human GIP receptor [1] = biological target: T1, human GIP receptor (Homo sapiens, UniProt P48546); assay: cAMP accumulation, antagonism (DiscoveRx HitHunter cAMP XS assay); design: host or cells: COS-7 (transient, calcium phosphate; pCMV-Script vector); details: Table 1B, DiscoveRx; for cAMP antagonism, % inhib: COS-7 cells, % inhibition of Emax; for IC50: cAMP antagonism, nM (IC50), transiently transfected COS-7 cells
T1 sequence (P48546 22-466): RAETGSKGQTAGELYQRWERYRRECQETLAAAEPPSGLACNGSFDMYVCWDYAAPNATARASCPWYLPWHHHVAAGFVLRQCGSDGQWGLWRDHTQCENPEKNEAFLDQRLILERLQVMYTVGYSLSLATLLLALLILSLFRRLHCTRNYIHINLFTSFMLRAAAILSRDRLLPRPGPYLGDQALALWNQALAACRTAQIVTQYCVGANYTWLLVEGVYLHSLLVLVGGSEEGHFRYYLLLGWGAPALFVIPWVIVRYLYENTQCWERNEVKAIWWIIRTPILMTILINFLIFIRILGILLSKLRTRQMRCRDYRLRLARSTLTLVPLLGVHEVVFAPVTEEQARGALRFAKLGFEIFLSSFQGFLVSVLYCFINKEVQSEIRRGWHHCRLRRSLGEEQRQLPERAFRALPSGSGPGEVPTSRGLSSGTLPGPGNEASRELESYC
Summary of the method: (§1)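 cAMP accumulation measured by HitHunter cAMP XS in COS-7 cells transiently expressing human GIP receptor, after 30 min in HBS with 1 mM IBMX at 37 °C. Antagonists preincubated 10 min before GIP giving 50-80% of maximum, then 20 min more; agonist mode used 30 min ligand exposure.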

human GIP receptor [2] = biological target: T1, human GIP receptor; assay: cAMP accumulation, agonism (DiscoveRx HitHunter cAMP XS assay); design: host or cells: COS-7 (transient, calcium phosphate; pCMV-Script vector); details: Table 1B; DiscoveRx; COS-7 cells
Summary of the method: as §1

human GIP receptor [3] = biological target: T1, human GIP receptor; assay: cAMP antagonism (CisBio cAMP Dynamic 2 HTRF assay); design: pCMV-Script vector; details: Table 1C, CisBio, HEK-293 cells; for IC50: cAMP antagonism, nM (IC50), agonist GIP1-42 at EC50
Summary of the method: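 Four-parameter fits of cAMP dose-response gave pIC50. cAMP fall was quantified by HTRF competition, ratio 665/620 nm after 60 min at room temperature, against a cAMP standard curve.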

human GIP receptor [4] = biological target: T1, human GIP receptor; assay: cAMP agonism (CisBio cAMP Dynamic 2 HTRF assay); details: HEK293, read-out: cAMP agonism, % Efficacy, Table 1C, HEK-293 cells
Procedure: To test for agonistic properties at the GIP receptor, compounds were diluted and added to cells as described above and incubated for 30 min at 37° C. The resulting increase in intracellular cAMP was determined using the CisBio cAMP Dynamic 2 HTRF Assay Kit as described above.

SMILES	cAMP antagonism, % inhib (human GIP receptor [1])	IC50 (human GIP receptor [1])	cAMP agonism, Emax (human GIP receptor [2])	cAMP antagonism, % inhib (human GIP receptor [3])	Emax (human GIP receptor [4])	IC50 (human GIP receptor [3])
CC[C@H](C)[C@H](NC(=O)[C@H](CO)NC(=O)[C@H](Cc1ccc(O)cc1)NC(=O)[C@H](CC(=O)O)NC(=O)[C@H](CO)NC(=O)[C@@H](NC(=O)[C@H](Cc1ccccc1)NC(=O)[C@@H](NC(=O)CNC(=O)CN)[C@@H](C)O)[C@@H](C)CC)C(=O)N[C@@H](C)C(=O)N[C@@H](CCSC)C(=O)N[C@@H](CC(=O)O)C(=O)N[C@@H](CCCNC(=N)N)C(=O)N[C@H](C(=O)N[C@@H](CCCCNC(=O)COCCOCCNC(=O)CC[C@H](NC(=O)CCCCCCCCCCCCCCC(=O)O)C(=O)O)C(=O)N[C@@H](CCC(N)=O)C(=O)N[C@@H](CCC(N)=O)C(=O)N[C@@H](CC(=O)O)C(=O)N[C@@H](Cc1ccccc1)C(=O)N[C@H](C(=O)N[C@@H](CC(N)=O)C(=O)N[C@@H](Cc1c[nH]c2ccccc12)C(=O)N[C@@H](CC(C)C)C(=O)N[C@@H](CC(C)C)C(=O)N[C@@H](C)C(=O)N[C@@H](CCC(N)=O)C(=O)N[C@@H](CCCNC(=N)N)C(N)=O)C(C)C)[C@@H](C)CC [AT508] (HELM PEPTIDE1{G.G.T.F.I.S.D.Y.S.I.A.M.D.R.I.K.Q.Q.D.F.V.N.W.L.L.A.Q.R.[am]}|PEPTIDE2{[O=C(O)CCCCCCCCCCCCCCC(=O)[*:2]].[gGlu].[O=C(COCCOCCN[*:1])[*:2]]}$PEPTIDE1,PEPTIDE2,16:R3-3:R2$$$V2.0; N-terminus assumed)	100%	23 nM	No Agonism	89%	0%	–
CC[C@H](C)[C@H](NC(=O)[C@H](CO)NC(=O)[C@H](Cc1ccc(O)cc1)NC(=O)[C@H](CC(=O)O)NC(=O)[C@H](CO)NC(=O)[C@@H](NC(=O)[C@H](Cc1ccccc1)NC(=O)[C@@H](NC(=O)CNC(=O)[C@@H](N)CO)[C@@H](C)O)[C@@H](C)CC)C(=O)N[C@@H](C)C(=O)N[C@@H](CCSC)C(=O)N[C@@H](CC(=O)O)C(=O)N[C@@H](CCCNC(=N)N)C(=O)N[C@H](C(=O)N[C@@H](CCCCNC(=O)COCCOCCNC(=O)CC[C@H](NC(=O)CCCCCCCCCCCCCCC(=O)O)C(=O)O)C(=O)N[C@@H](CCC(N)=O)C(=O)N[C@@H](CCC(N)=O)C(=O)N[C@@H](CC(=O)O)C(=O)N[C@@H](Cc1ccccc1)C(=O)N[C@H](C(=O)N[C@@H](CC(N)=O)C(=O)N[C@@H](Cc1c[nH]c2ccccc12)C(=O)N[C@@H](CC(C)C)C(=O)N[C@@H](CC(C)C)C(=O)N[C@@H](C)C(=O)N[C@@H](CCC(N)=O)C(=O)N[C@@H](CCCNC(=N)N)C(N)=O)C(C)C)[C@@H](C)CC [AT510] (HELM PEPTIDE1{S.G.T.F.I.S.D.Y.S.I.A.M.D.R.I.K.Q.Q.D.F.V.N.W.L.L.A.Q.R.[am]}|PEPTIDE2{[O=C(O)CCCCCCCCCCCCCCC(=O)[*:2]].[gGlu].[O=C(COCCOCCN[*:1])[*:2]]}$PEPTIDE1,PEPTIDE2,16:R3-3:R2$$$V2.0; N-terminus assumed)	100%	–	No Agonism	87%	2%	58.4 nM
CC[C@H](C)[C@H](NC(=O)[C@H](CO)NC(=O)[C@H](Cc1ccc(O)cc1)NC(=O)[C@H](CC(=O)O)NC(=O)[C@H](CO)NC(=O)[C@@H](NC(=O)[C@H](Cc1ccccc1)NC(=O)[C@@H](NC(=O)CNC(=O)[C@@H]1CCCN1)[C@@H](C)O)[C@@H](C)CC)C(=O)N[C@@H](C)C(=O)N[C@@H](CCSC)C(=O)N[C@@H](CC(=O)O)C(=O)N[C@@H](CCCNC(=N)N)C(=O)N[C@H](C(=O)N[C@@H](CCCCNC(=O)COCCOCCNC(=O)CC[C@H](NC(=O)CCCCCCCCCCCCCCC(=O)O)C(=O)O)C(=O)N[C@@H](CCC(N)=O)C(=O)N[C@@H](CCC(N)=O)C(=O)N[C@@H](CC(=O)O)C(=O)N[C@@H](Cc1ccccc1)C(=O)N[C@H](C(=O)N[C@@H](CC(N)=O)C(=O)N[C@@H](Cc1c[nH]c2ccccc12)C(=O)N[C@@H](CC(C)C)C(=O)N[C@@H](CC(C)C)C(=O)N[C@@H](C)C(=O)N[C@@H](CCC(N)=O)C(=O)N[C@@H](CCCNC(=N)N)C(N)=O)C(C)C)[C@@H](C)CC [AT512] (HELM PEPTIDE1{P.G.T.F.I.S.D.Y.S.I.A.M.D.R.I.K.Q.Q.D.F.V.N.W.L.L.A.Q.R.[am]}|PEPTIDE2{[O=C(O)CCCCCCCCCCCCCCC(=O)[*:2]].[gGlu].[O=C(COCCOCCN[*:1])[*:2]]}$PEPTIDE1,PEPTIDE2,16:R3-3:R2$$$V2.0; N-terminus assumed)	80%	–	No Agonism	73%	0%	79.4 nM
CC[C@H](C)[C@H](NC(=O)[C@H](CO)NC(=O)[C@H](Cc1ccc(O)cc1)NC(=O)[C@H](CC(=O)O)NC(=O)[C@H](CO)NC(=O)[C@@H](NC(=O)[C@H](Cc1ccccc1)NC(=O)[C@@H](NC(=O)CNC(=O)CN)[C@@H](C)O)[C@@H](C)CC)C(=O)N[C@@H](C)C(=O)N[C@@H](CCSC)C(=O)N[C@@H](CC(=O)O)C(=O)N[C@@H](CCCNC(=N)N)C(=O)N[C@H](C(=O)N[C@@H](CCCCNC(=O)COCCOCCNC(=O)COCCOCCNC(=O)CC[C@H](NC(=O)CCCCCCCCCCCCCCC(=O)O)C(=O)O)C(=O)N[C@@H](CCC(N)=O)C(=O)N[C@@H](CCC(N)=O)C(=O)N[C@@H](CC(=O)O)C(=O)N[C@@H](Cc1ccccc1)C(=O)N[C@H](C(=O)N[C@@H](CC(N)=O)C(=O)N[C@@H](Cc1c[nH]c2ccccc12)C(=O)N[C@@H](CC(C)C)C(=O)N[C@@H](CC(C)C)C(=O)N[C@@H](C)C(=O)N[C@@H](CCC(N)=O)C(=O)N[C@@H](CCCNC(=N)N)C(N)=O)C(C)C)[C@@H](C)CC [AT514] (H-GGTFISDYSIAMDRIK([AEEA-AEEA-γGlu-C16 diacid])QQDFVNWLLAQR-NH2; N-terminus assumed)	80%	–	No Agonism	86%	0%	31.6 nM
CC[C@H](C)[C@H](NC(=O)[C@H](CO)NC(=O)[C@H](Cc1ccc(O)cc1)NC(=O)[C@H](CC(=O)O)NC(=O)[C@H](CO)NC(=O)[C@@H](NC(=O)[C@H](Cc1ccccc1)NC(=O)[C@@H](NC(=O)CNC(=O)[C@@H](N)CO)[C@@H](C)O)[C@@H](C)CC)C(=O)N[C@@H](C)C(=O)N[C@@H](CCSC)C(=O)N[C@@H](CC(=O)O)C(=O)N[C@@H](CCCNC(=N)N)C(=O)N[C@H](C(=O)N[C@@H](CCCCNC(=O)COCCOCCNC(=O)COCCOCCNC(=O)CC[C@H](NC(=O)CCCCCCCCCCCCCCC(=O)O)C(=O)O)C(=O)N[C@@H](CCC(N)=O)C(=O)N[C@@H](CCC(N)=O)C(=O)N[C@@H](CC(=O)O)C(=O)N[C@@H](Cc1ccccc1)C(=O)N[C@H](C(=O)N[C@@H](CC(N)=O)C(=O)N[C@@H](Cc1c[nH]c2ccccc12)C(=O)N[C@@H](CC(C)C)C(=O)N[C@@H](CC(C)C)C(=O)N[C@@H](C)C(=O)N[C@@H](CCC(N)=O)C(=O)N[C@@H](CCCNC(=N)N)C(N)=O)C(C)C)[C@@H](C)CC [AT516] (H-SGTFISDYSIAMDRIK([AEEA-AEEA-γGlu-C16 diacid])QQDFVNWLLAQR-NH2; N-terminus assumed)	100%	31 nM	No Agonism	88%	0%	–
